The target in experiment [1] is T1, Histamine H3 receptor (Cavia porcellus, UniProt Q9JI35). Briefly: Histamine H3 functional assay, guinea pig ileum (ileal longitudinal muscle, myenteric plexus). The note with it: antagonist affinity from rightward shift of R-(α)-methylhistamine E/[A] curves (Schild), typical variance ±0.15 log units; for Kb: read-out: pKb (Guinea pig ileum) (converted). Set-up: species or system tissue. Put shortly:
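Longitudinal muscle–myenteric plexus strips from male Dunkin-Hartley guinea pigs (250-300 g), Krebs-Henseleit buffer at 37±1° C, field-stimulated at 0.1 Hz, 0.5 msec, supramaximal voltage; isometric recording. Cumulative R-(α)-methylhistamine E/[A] curves as % inhibition of twitch height; antagonist affinity by Schild analysis of rightward shift.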

Experiment [2] deals with T1, Histamine H3 receptor. In words: Histamine H3 radioligand binding assay, guinea pig cortex ([3H]-R-α-methylhistamine). To be noted: guinea pig cortex membranes, competition with 1 nM [3H]-R-α-methylhistamine; for Ki: read-out: pKi (Guinea pig cortex) (converted). The gist of the method: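 Male Dunkin Hartley guinea pig cortical membranes incubated 165 min at 21±3 °C in 20 mM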

T1 sequence (Q9JI35 whole entry): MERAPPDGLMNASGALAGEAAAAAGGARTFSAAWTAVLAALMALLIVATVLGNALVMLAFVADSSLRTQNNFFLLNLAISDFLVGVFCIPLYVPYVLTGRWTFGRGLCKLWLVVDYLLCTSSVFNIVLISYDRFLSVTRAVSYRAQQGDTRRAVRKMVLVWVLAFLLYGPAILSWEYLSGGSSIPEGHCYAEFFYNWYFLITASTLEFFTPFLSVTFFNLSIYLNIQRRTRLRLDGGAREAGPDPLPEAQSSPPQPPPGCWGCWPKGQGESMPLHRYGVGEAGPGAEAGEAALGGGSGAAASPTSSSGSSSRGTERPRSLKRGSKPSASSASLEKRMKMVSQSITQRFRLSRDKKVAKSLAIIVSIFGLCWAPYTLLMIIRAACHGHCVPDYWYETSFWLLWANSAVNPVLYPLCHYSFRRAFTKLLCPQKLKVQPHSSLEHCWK

Consider `O=S(=O)(NCCCCN1CCCC1)NCc1ccc(Cl)cc1` [Example 139, N-(4-Chlorobenzyl)-N′-(4-pyrrolidin-1-yl-butyl)-sulfamide], for which the Kb on Histamine H3 receptor [1] is 501 nM. The Ki on Histamine H3 receptor [2] was 200 nM.
On to `O=S(=O)(NCCCCN1CCCC1)N(CCCCN1CCCC1)Cc1ccc(Cl)cc1` [Example 140, N-(4-Chlorobenzyl)-N N′-bis(4-pyrrolidin-1-yl-butyl)-sulfamide], for which the Kb on Histamine H3 receptor [1] was 316 nM. At Histamine H3 receptor [2], the Ki is 7.94 nM.
For `O=S(=O)(NCCCCCN1CCCC1)NCc1ccc(Cl)cc1` [Example 141, N-(4-Chlorobenzyl)-N′-(5-pyrrolidin-1-yl-pentyl)-sulfamide], in that order: 501 nM and 251 nM.
On the same counts, the results for `CN1CCC[C@H]1CCCNS(=O)(=O)CCC1CCCCC1` [Example 142, N-(3-(1-Methyl-pyrrolidin-2S-yl)-propyl)-2-cyclohexyl-ethanesulfonamide] are 2000 nM and 631 nM.
Regarding “N-Adamantan-1-yl-methyl-N′-(3-pyrrolidin-1-yl-propyl)-guanidine bis-hydrochloride [Example 28]”, the “pKb (Guinea pig ileum)” value on Histamine H3 receptor [1] was 6.7. Further, the “pKi (Guinea pig cortex)” value at Histamine H3 receptor [2] was 7.5.
For “N-Adamantan-1-yl-methyl-N′-(4-pyrrolidin-1-yl-butyl)-guanidine bis-hydrochloride [Example 29]”, in that order: 7.7 and 8.4.
For “N-Biphenyl-4-yl-methyl-N′-(5-pyrrolidin-1-yl-pentyl)-guanidine bis-hydrochloride [Example 55]”, in that order: 6.6 and 7.5.

The values are drawn from US6878736B1, “Histamine H3 receptor ligands” (James Black Foundation Limited, priority 1998, dated 2005).
